Assay results as given in the NIST ThermoML archive (doi:10.1021/je4005323).

Conditions: Liquid; for speed of sound: Pulse-echo method; for mass density: Vibrating tube method

CCCCCCCC/C=C\CCCCCCCC(=O)OC [methyl cis-9-octadecenoate]
Conditions	mass density [kg/m3]	speed of sound [m/s]
283.15 K, 101.3 kPa	–	1443.2
283.15 K, 10000 kPa	–	1486.1
283.15 K, 20000 kPa	–	1526.5
283.15 K, 30000 kPa	–	1564.5
283.15 K, 40000 kPa	–	1600.5
283.15 K, 50000 kPa	–	1634.5
283.15 K, 60000 kPa	–	1668.6
283.15 K, 70000 kPa	–	1701
283.15 K, 80000 kPa	–	1732.7
283.15 K, 90000 kPa	–	1762.7
283.15 K, 100000 kPa	–	1790.8
283.15 K, 110000 kPa	–	1819.3
283.15 K, 120000 kPa	–	1846
283.15 K, 130000 kPa	–	1872.5
283.15 K, 140000 kPa	–	1897.8
283.15 K, 150000 kPa	–	1923.3
283.15 K, 160000 kPa	–	1947.8
283.15 K, 170000 kPa	–	1971.2
283.15 K, 180000 kPa	–	1994.3
283.15 K, 190000 kPa	–	2016.8
283.15 K, 200000 kPa	–	2036.4
293.15 K, 101.3 kPa	873.8	–
293.15 K, 10000 kPa	880	–
293.15 K, 20000 kPa	885.3	–
293.15 K, 30000 kPa	890.6	–
293.15 K, 40000 kPa	895.5	–
293.15 K, 50000 kPa	900.1	–
293.15 K, 60000 kPa	904.5	–
293.15 K, 70000 kPa	908.9	–
293.15 K, 80000 kPa	912.6	–
293.15 K, 90000 kPa	916.9	–
293.15 K, 100000 kPa	920.7	–
303.15 K, 101.3 kPa	866.3	1370.5
303.15 K, 10000 kPa	872.8	1416.8
303.15 K, 20000 kPa	878.4	1460
303.15 K, 30000 kPa	883.9	1502
303.15 K, 40000 kPa	888.9	1540.9
303.15 K, 50000 kPa	893.7	1578.3
303.15 K, 60000 kPa	898.3	1613.7
303.15 K, 70000 kPa	902.7	1647
303.15 K, 80000 kPa	906.9	1678.8
303.15 K, 90000 kPa	910.9	1709.5
303.15 K, 100000 kPa	915.4	1739.7
303.15 K, 110000 kPa	–	1768.5
303.15 K, 120000 kPa	–	1796.4
303.15 K, 130000 kPa	–	1821.2
303.15 K, 140000 kPa	–	1848.1
303.15 K, 150000 kPa	–	1874.2
303.15 K, 160000 kPa	–	1899
303.15 K, 170000 kPa	–	1923.1
303.15 K, 180000 kPa	–	1947
303.15 K, 190000 kPa	–	1970.3
303.15 K, 200000 kPa	–	1992.7
313.15 K, 101.3 kPa	859.6	–
313.15 K, 10000 kPa	865.8	–
313.15 K, 20000 kPa	871.7	–
313.15 K, 30000 kPa	877.5	–
313.15 K, 40000 kPa	882.5	–
313.15 K, 50000 kPa	887.5	–
313.15 K, 60000 kPa	892.2	–
313.15 K, 70000 kPa	896.7	–
313.15 K, 80000 kPa	901.2	–
313.15 K, 90000 kPa	905.2	–
313.15 K, 100000 kPa	909.7	–
323.15 K, 101.3 kPa	852.4	1301.9
323.15 K, 10000 kPa	858.9	1352.1
323.15 K, 20000 kPa	865.1	1397.7
323.15 K, 30000 kPa	870.9	1441.1
323.15 K, 40000 kPa	876.1	1482.3
323.15 K, 50000 kPa	881.1	1521.2
323.15 K, 60000 kPa	886.2	1558.5
323.15 K, 70000 kPa	891	1593.5
323.15 K, 80000 kPa	895.5	1627.2
323.15 K, 90000 kPa	899.7	1659.3
323.15 K, 100000 kPa	904.1	1690.2
323.15 K, 110000 kPa	–	1719.3
323.15 K, 120000 kPa	–	1747.7
323.15 K, 130000 kPa	–	1775.4
323.15 K, 140000 kPa	–	1801.6
323.15 K, 150000 kPa	–	1827.1
323.15 K, 160000 kPa	–	1853
323.15 K, 170000 kPa	–	1878.4
323.15 K, 180000 kPa	–	1902.6
323.15 K, 190000 kPa	–	1925.8
323.15 K, 200000 kPa	–	1949.2
333.15 K, 101.3 kPa	844.8	–
333.15 K, 10000 kPa	851.7	–
333.15 K, 20000 kPa	858.3	–
333.15 K, 30000 kPa	864.2	–
333.15 K, 40000 kPa	869.7	–
333.15 K, 50000 kPa	875	–
333.15 K, 60000 kPa	880.1	–
333.15 K, 70000 kPa	884.9	–
333.15 K, 80000 kPa	889.4	–
333.15 K, 90000 kPa	893.9	–
333.15 K, 100000 kPa	898.2	–
343.15 K, 101.3 kPa	837.8	1235.8
343.15 K, 10000 kPa	845.2	1289
343.15 K, 20000 kPa	851.9	1338.1
343.15 K, 30000 kPa	858.1	1383.7
343.15 K, 40000 kPa	864	1426
343.15 K, 50000 kPa	869.5	1466.7
343.15 K, 60000 kPa	874.6	1505.4
343.15 K, 70000 kPa	879.5	1542.2
343.15 K, 80000 kPa	884.4	1575.4
343.15 K, 90000 kPa	889	1609.4
343.15 K, 100000 kPa	893.4	1641.6
343.15 K, 110000 kPa	–	1672.6
343.15 K, 120000 kPa	–	1701.9
343.15 K, 130000 kPa	–	1729.9
343.15 K, 140000 kPa	–	1757.3
343.15 K, 150000 kPa	–	1783.8
343.15 K, 160000 kPa	–	1809.7
343.15 K, 170000 kPa	–	1834.3
343.15 K, 180000 kPa	–	1859.7
343.15 K, 190000 kPa	–	1883.4
343.15 K, 200000 kPa	–	1905.8
353.15 K, 101.3 kPa	830.4	–
353.15 K, 10000 kPa	838	–
353.15 K, 20000 kPa	845.1	–
353.15 K, 30000 kPa	851.5	–
353.15 K, 40000 kPa	857.5	–
353.15 K, 50000 kPa	863.3	–
353.15 K, 60000 kPa	868.7	–
353.15 K, 70000 kPa	873.8	–
353.15 K, 80000 kPa	878.7	–
353.15 K, 90000 kPa	883.6	–
353.15 K, 100000 kPa	888.2	–
363.15 K, 101.3 kPa	823.2	1170.9
363.15 K, 10000 kPa	831.3	1228.2
363.15 K, 20000 kPa	838.7	1280.6
363.15 K, 30000 kPa	845.5	1329.3
363.15 K, 40000 kPa	851.8	1374
363.15 K, 50000 kPa	857.7	1414.4
363.15 K, 60000 kPa	863.1	1454.6
363.15 K, 70000 kPa	868.4	1492.2
363.15 K, 80000 kPa	873.3	1527.5
363.15 K, 90000 kPa	878.1	1563.5
363.15 K, 100000 kPa	882.9	1597.2
363.15 K, 110000 kPa	–	1629.1
363.15 K, 120000 kPa	–	1659.3
363.15 K, 130000 kPa	–	1687.5
363.15 K, 140000 kPa	–	1715.4
363.15 K, 150000 kPa	–	1741.8
363.15 K, 160000 kPa	–	1766.9
363.15 K, 170000 kPa	–	1793.1
363.15 K, 180000 kPa	–	1817.7
363.15 K, 190000 kPa	–	1841.2
363.15 K, 200000 kPa	–	1864.9
373.15 K, 101.3 kPa	815.8	–
373.15 K, 10000 kPa	824.2	–
373.15 K, 20000 kPa	832	–
373.15 K, 30000 kPa	839.1	–
373.15 K, 40000 kPa	845.7	–
373.15 K, 50000 kPa	851.8	–
373.15 K, 60000 kPa	857.5	–
373.15 K, 70000 kPa	862.9	–
373.15 K, 80000 kPa	868.2	–
373.15 K, 90000 kPa	873	–
373.15 K, 100000 kPa	878.1	–
383.15 K, 101.3 kPa	808.4	1108.9
383.15 K, 10000 kPa	817.4	1170.4
383.15 K, 20000 kPa	825.5	1226.5
383.15 K, 30000 kPa	832.7	1277.8
383.15 K, 40000 kPa	839.5	1324.6
383.15 K, 50000 kPa	845.9	1367.4
383.15 K, 60000 kPa	851.8	1407.7
383.15 K, 70000 kPa	857.5	1446.1
383.15 K, 80000 kPa	862.8	1481.7
383.15 K, 90000 kPa	867.9	1516.9
383.15 K, 100000 kPa	873.2	1550.2
383.15 K, 110000 kPa	–	1583.4
383.15 K, 120000 kPa	–	1615.8
383.15 K, 130000 kPa	–	1645.9
383.15 K, 140000 kPa	–	1674.2
383.15 K, 150000 kPa	–	1701.5
383.15 K, 160000 kPa	–	1729.4
383.15 K, 170000 kPa	–	1755.3
383.15 K, 180000 kPa	–	1781.4
383.15 K, 190000 kPa	–	1805.7
383.15 K, 200000 kPa	–	1828.3
393.15 K, 101.3 kPa	800.8	1078.5
393.15 K, 10000 kPa	810.2	1142.4
393.15 K, 20000 kPa	818.5	1200
393.15 K, 30000 kPa	826.2	1252
393.15 K, 40000 kPa	833.2	1299.9
393.15 K, 50000 kPa	839.6	1343.8
393.15 K, 60000 kPa	845.7	1384.5
393.15 K, 70000 kPa	851.7	1423.6
393.15 K, 80000 kPa	857.2	1460.2
393.15 K, 90000 kPa	862.4	1495.7
393.15 K, 100000 kPa	867.6	1529.7
393.15 K, 110000 kPa	–	1562.8
393.15 K, 120000 kPa	–	1593.9
393.15 K, 130000 kPa	–	1624.5
393.15 K, 140000 kPa	–	1654.6
393.15 K, 150000 kPa	–	1683
393.15 K, 160000 kPa	–	1710.3
393.15 K, 170000 kPa	–	1736.2
393.15 K, 180000 kPa	–	1761.2
393.15 K, 190000 kPa	–	1785.3
393.15 K, 200000 kPa	–	1809.7
